In US20250222063A1, “TOPICAL FORMULATION FOR USE IN THE TREATMENT OR PREVENTION OF DRY ITCHY SKIN” (MC2 THERAPEUTICS LTD, priority 2022, published 2025):
Residues, ends and D or L forms follow the SMILES beside them.

Columns and labels:
[1] = ACD/Labs calculated Log P; conditions: summary in words, judged from Log P
From the text: It is well known in the art that compounds for a given molecular weight with more extreme Log P values are less likely to permeate the skin barrier well. Whether that be extremely hydrophilic (Log P<−2) or extremely hydrophobic (Log P>2) (16).). All of the dipeptides have a molecular weight below 400 therefore a good approximation of their relative permeation potential is their Log P. According to the ACD/Labs calculated Log P values Ala-Gln is the one of the most hydrophilc in nature with a Log P of −4.4.

[2] = Aqueous stability in HBSS buffer at 40° C. (HPLC-UV); assay type: physicochemical; conditions: for 1 month aqueous stability at 40° C. / 3 month aqueous stability at 40° C.: 3% wt/wt or 0.4% wt/wt in HBSS buffer, glass vials, HPLC-UV, in % (unit assumed); for aqueous stability: summary in words
Method: An important aspect of formulating a stable topical product. Data in Table 4 below gives 1 month and 3 month stability data at 40° C. Compounds were dissolved at 3% wt/wt or 0.4% wt/wt (if 3% was not possible) in HBSS buffer and stored in glass vials at temperature. Samples were subsequently analyzed by HPLC-UV.

[3] = Skin homogenate study (degradation half-life, LC-MS/MS); assay type: in vitro ADME, human; conditions: for Half life in skin homogenate: pooled human skin homogenate, 37° C., compound working solution 40 μg/mL mixed with equal volume of homogenate; for degradation: summary in words, given as in vivo
Method: To identify which of the dipeptides was readily subject to degradation by proteases and other cell processes in the skin, a number of compounds where tested in a skin homogenate study as described below and the results are listed in table 3.
Dermatomed human skin from multiple skin donors was pooled, homogenized, and adjusted to a tissue concentration of 100 mg tissue per mL of homogenate. The homogenate was used immediately following preparation without any additional freeze/thaw cycles. Working solutions of each compound were prepared in Dulbecco's phosphate-buffered saline (DPBS) at 40 μg/mL. All solutions were pre-heated to 37° C. Equal volumes of skin homogenate and compound working solution were combined, mixed, held at 37° C., and sampled at 0, 15, 30, 60, 120, and 240 minutes. Samples were quenched with acidic acetonitrile, centrifuged, and prepared for LC-MS/MS analysis. Peak areas of each compound at each time-point were determined by LC-MS/MS.
The individual half-life of each dipeptide was determined.
The nature of the experiment should be considered indicative of the relative stability of each of the compounds rather than an absolute correlation to what would happen in vivo. The process of homogenizing the skin is likely to greatly accelerate the degradation. However, it is clear that there is substantial variation in the relative rates for each dipeptide. (See Table 3)

[4] = tested on: bovine serum albumin (BSA); test: In vitro protein carbamylation assay (14C-potassium cyanate, scintillation counting); assay type: biochemical; conditions: for Degree of carbamylation (% relative to HBSS control): 10 mM nucleophile, 75 μM BSA, 25 μM 14C-Potassium Cyanate, 37° C., 72 hours, n=3; for scavenger potential: summary in words
Method: The tests were performed as described below. 200 μL of a 0.5% BSA solution, 200 μL of test solution and 100 μL of a 5 μCi/mL 14 C-Potassium Cyanate solution was mixed in an Eppendorf tube (corresponding to a final concentration of 75 μM BSA, 25 μM 14 C-Potassium Cyanate, and 10 mM nucleophile). Samples run in triplicates (n=3). The Eppendorf tubes were incubated at 37° C. for 72 hours.
After incubation a volume of 100 μL of each sample was transferred to a new Eppendorf tube containing 100 μL of a 10% trichloroacetic acid (TCA) and kept at 4° C. overnight (for precipitation of BSA). Subsequently, the precipitated BSA was separated from the buffer by centrifugation (10000 rpm, 30 seconds). The supernatant was removed and the BSA pellet 10 was resuspended in 200 μL of a 10% solution of cold TCA (4° C.). The pellet was recovered by centrifugation (10000 rpm, 30 seconds) and supernatant was discarded. The BSA pellet was resuspended in 100 μL purified water (MilliQ) and transferred to a scintillation vial. The Eppendorf tube (previously containing the BSA pellet) was rinsed with an additional 100 μL purified water which al was transferred to the relevant scintillation vial.

[5] = Solubility (stated in words); assay type: physicochemical; conditions: summary in words

| transdermal penetration potential [1] | 1 month aqueous stability at 40° C. [2] | 3 month aqueous stability at 40° C. [2] | aqueous stability [2] | Half life in skin homogenate [3] [min] | degradation [3] | solubility [5] | Structure (SMILES) | Degree of carbamylation (% relative to HBSS control) [4] | scavenger potential [4] |
| --- | --- | --- | --- | --- | --- | --- | --- | --- | --- |
| poor | 100.6 | 100.1 | good | <5 | rapid | good | C[C@H](N)C(=O)N[C@@H](CCC(N)=O)C(=O)O [Ala-Gln] (H-Ala-Gln-OH) | 34.8 % relative to HBSS control | good |
| poor | 99.1 | 99.0 | good | 39 | rapid | good | C[C@H](N)C(=O)N[C@@H](CCC(=O)O)C(=O)O [Ala-Glu] (H-Ala-Glu-OH) | 20.4 % relative to HBSS control | good |
| poor |  |  | good | 45 | rapid | good | NCC(=O)N[C@@H](CCCN=C(N)N)C(=O)O [Gly-Arg] (H-Gly-Arg-OH) |  | good |
